The values below come from patent US20070148136A1, “Methods of using ammonia oxidizing bacteria” (priority 2003, published 2007).

One may read the EC50 as the concentration that produces a half-maximal response.

One data set has as its target T1, ammonia monooxygenase (Nitrosomonas europaea, UniProt Q04507+Q04508).
T1 construct: endogenous in cells; host or cells: autotrophic ammonia oxidizing bacteria (AAOB), mixed and unspecified, e.g. in waste water
T1 sequence (Q04507 1-276): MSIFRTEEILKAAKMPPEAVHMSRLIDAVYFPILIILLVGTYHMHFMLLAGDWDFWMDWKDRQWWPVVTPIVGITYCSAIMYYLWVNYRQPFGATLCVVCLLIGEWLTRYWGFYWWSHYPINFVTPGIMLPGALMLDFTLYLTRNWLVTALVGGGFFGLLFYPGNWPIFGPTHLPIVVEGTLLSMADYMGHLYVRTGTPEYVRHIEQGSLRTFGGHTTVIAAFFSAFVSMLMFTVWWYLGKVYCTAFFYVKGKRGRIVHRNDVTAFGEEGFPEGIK
T1 sequence (Q04508 26-420): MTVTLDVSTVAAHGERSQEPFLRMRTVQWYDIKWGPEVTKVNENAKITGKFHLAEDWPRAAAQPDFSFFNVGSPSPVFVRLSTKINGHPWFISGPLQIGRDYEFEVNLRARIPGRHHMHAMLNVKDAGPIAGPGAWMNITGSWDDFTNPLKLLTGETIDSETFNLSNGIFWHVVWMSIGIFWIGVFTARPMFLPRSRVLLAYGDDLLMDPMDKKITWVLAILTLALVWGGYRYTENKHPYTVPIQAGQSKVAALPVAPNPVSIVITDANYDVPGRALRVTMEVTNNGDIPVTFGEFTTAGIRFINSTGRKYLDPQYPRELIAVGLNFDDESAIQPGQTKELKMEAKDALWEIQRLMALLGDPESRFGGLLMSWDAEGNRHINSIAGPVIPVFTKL
Particulars: cited from earlier work.

The test system of data set [1] is local brachial artery vasodilatation. Briefly: Local brachial artery vasodilatation after bolus infusion (Rassaf et al.). The class given is in vivo, human. Particulars: for relative effectiveness (intravenous NO : SNP : GSNO): ratio, intravenous NO = 1. As to the method: SNP has also been compared to intravenous NO, where intravenous NO, SNP, and S—NO-glutathione (GSNO) were shown by Rassaf et al. to have relative “maximally effective doses” administered as bolus infusions in local brachial artery vasodilatation of 6 μM, 34 nM, and 5 nM respectively. (Rassaf et al., Evidence for in vivo transport of bioactive nitric oxide in human plasma, J. Clin. Invest. 109:1241-1248 (2002).) This puts the relative effectiveness of intravenous NO, SNP, and GSNO at 1:176:1200. There were significant differences in the temporal course of vasodilatation induced through the above treatments. […] Thus GSNO is roughly 7 times more “effective” at getting “NO active species” to peripheral GC than is SNP. Presumably then, a dose of about 0.1 μM/kg/hr of GSNO would have a vasodilatation effect equivalent to 0.75 μM/kg/hr SNP. The basal nitrate excretion is about 1 μM/kg/hr. If we assume that the vasodilatory effects of 0.75 μ/kg/hr SNP are on the “same order” as the indigenous NO already produced, then the 0.1 μkg/hr GSNO represents an increase in “effective NO” of […] over basal levels.

For data set [2] the test system is unchanged. Particulars: bolus infusion, cited from earlier work.
The next data set deals with Human Mast Cell Adhesion. Particulars: cited from earlier work.
The test system of data set [3] is NOS. Particulars: horse, cited from earlier work.
Data set [4] deals with NOS. To be noted: chronic inhibition of NOS; cited from earlier work.
Data set [5] has as its system NOS. To be noted: chronic inhibition of NOS; cited from earlier work. This is another data set of the same source.
Data set [6] relates to NOS. To be noted: in vivo; cited from earlier work.
The next data set concerns NO synthesis. To be noted: in vivo; cited from earlier work.
For data set [7] the following is noted: hyperbaric O2; cited from earlier work.
The conditions of data set [8]: type 2 diabetics; cited from earlier work.
For another data set, the target named is T2, guanylyl cyclase (GC) (Homo sapiens, UniProt Q02153).
T2 construct: Soluble Guanylyl Cyclase, in Intact Cerebellar Cells; host or cells: intact cerebellar cells (endogenous)
T2 sequence (Q02153 1-619): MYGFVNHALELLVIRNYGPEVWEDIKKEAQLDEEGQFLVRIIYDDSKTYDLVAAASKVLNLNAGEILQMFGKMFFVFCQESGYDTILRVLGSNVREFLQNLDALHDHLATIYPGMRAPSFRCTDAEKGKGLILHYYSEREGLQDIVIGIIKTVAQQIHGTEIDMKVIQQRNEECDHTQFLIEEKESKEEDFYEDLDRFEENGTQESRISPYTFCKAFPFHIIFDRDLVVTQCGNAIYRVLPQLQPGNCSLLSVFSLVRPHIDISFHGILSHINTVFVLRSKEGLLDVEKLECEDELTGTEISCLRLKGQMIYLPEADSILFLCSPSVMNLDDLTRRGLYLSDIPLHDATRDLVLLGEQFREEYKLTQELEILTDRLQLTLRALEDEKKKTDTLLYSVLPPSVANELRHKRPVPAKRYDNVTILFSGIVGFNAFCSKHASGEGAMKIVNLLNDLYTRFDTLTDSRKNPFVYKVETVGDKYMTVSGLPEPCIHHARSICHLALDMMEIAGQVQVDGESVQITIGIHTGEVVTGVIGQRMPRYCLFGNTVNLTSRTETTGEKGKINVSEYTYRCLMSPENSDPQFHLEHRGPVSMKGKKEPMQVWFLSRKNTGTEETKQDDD
T2 sequence (Q02108 1-690 partner): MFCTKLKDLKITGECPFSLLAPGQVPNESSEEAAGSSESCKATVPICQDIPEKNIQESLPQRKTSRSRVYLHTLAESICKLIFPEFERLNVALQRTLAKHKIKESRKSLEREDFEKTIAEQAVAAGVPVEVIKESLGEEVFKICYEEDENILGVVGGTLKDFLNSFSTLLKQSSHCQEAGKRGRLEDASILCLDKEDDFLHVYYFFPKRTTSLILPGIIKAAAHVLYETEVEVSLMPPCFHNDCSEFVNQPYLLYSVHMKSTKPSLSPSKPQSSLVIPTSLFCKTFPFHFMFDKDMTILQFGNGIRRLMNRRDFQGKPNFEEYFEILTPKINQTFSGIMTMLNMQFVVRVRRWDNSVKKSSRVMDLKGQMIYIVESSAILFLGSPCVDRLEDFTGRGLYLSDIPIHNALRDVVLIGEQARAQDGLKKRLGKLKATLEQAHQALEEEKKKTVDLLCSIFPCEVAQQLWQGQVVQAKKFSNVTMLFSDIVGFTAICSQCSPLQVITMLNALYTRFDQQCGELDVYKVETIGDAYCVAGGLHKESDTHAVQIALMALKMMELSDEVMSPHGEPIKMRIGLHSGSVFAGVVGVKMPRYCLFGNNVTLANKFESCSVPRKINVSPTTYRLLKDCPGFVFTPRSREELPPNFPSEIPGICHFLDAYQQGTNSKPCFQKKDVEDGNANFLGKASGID
To be noted: read-out: apparent EC50 for guanylyl cyclase activation, cited from earlier work.

The conditions of data set [9]: inhaled NO at 80 ppm in >90% O2 (16 μM/min=14 μM/kg/hr); cited from earlier work.
For data set [10] the following is noted: compared with estrogen; cited from earlier work.
The subject of another data set is AAOB. To be noted: cited from earlier work.
The conditions of data set [11]: physiologic concentrations of CP; cited from earlier work.
The subject of data set [12] is murine macrophage cells (RAW264). To be noted: CP 2 μM/L in Krebs-Ringer-phosphate, absence of hemoglobin; cited from earlier work.

“Also recorded” adds a separate entry of the source. Like-named read-outs stand apart in the source and are kept apart here.

Regarding `C=CCNC(N)=S` [Allylthiourea], the “inhibition of ammonia monooxygenase” value on ammonia monooxygenase was “very effective at inhibiting ammonia monooxygenase”.

For `N[C@@H](CCC(=O)N[C@@H](CSN=O)C(=O)NCC(=O)O)C(=O)O` [GSNO, S-nitrosoglutathione], the “effectiveness at getting NO active species to peripheral GC relative to SNP” value in data set [1] (GSNO versus SNP) is “roughly 7 times”. For the same molecule, the “relative effectiveness (intravenous NO : SNP : GSNO)” value in data set [1] stood at 1200. Also, in [2], the “maximally effective dose, local brachial artery vasodilatation” value was 0.005 µM. For the same molecule, the mast cell adhesion result in the data set with Human Mast Cell Adhesion is “strongly down regulated”.

As for `COC(=O)[C@@H](N)CCCNC(=N)N[N+](=O)[O-]` [L-NAME, N(G)-nitro-L-arginine methyl ester], in the data set on NOS [3] (L-NAME group (control 62.5)), the VCO2max is on record as 61.0 L/min. Moreover, the “reduction of cardiac output” value in the data set with NOS [3] (L-NAME group) is on record as 12%. Further, the “fibrosis of heart and kidneys” value with NOS [4] is “generalized fibrosis of the heart and kidneys”. In the data set on NOS [5], the “total (pancreatic islet) NO production” value is listed as “can increase NO levels at particular sites; also recorded: increases total pancreatic islet NO production”.

Turning to `NC(=NCCC[C@H](N)C(=O)O)N[N+](=O)[O-]` [L-NNA, N-nitro-L arginine], the “wake-sleep differences in cerebral blood flow” value with NOS [6] is given as “abolishes wake-sleep differences in cerebral blood flow”. Further, the “reduction in basal temperature following hypoxia” value with NO synthesis is reported as “greatly diminished”.

As for `N=C(N)NCCC[C@H](N)C(=O)O` [L-arginine], in data set [7], the latency to seizure result was “increase the latency to seizure”. In data set [8], the forearm blood flow entry is reported as “increases forearm blood flow” and the insulin sensitivity result was “increases insulin sensitivity”.

In the case of `[N]=O` [NO, nitric oxide], in data set [1], the “relative effectiveness (intravenous NO : SNP : GSNO)” value was determined as 1. Besides, the EC50 on guanylyl cyclase (GC) (rapid (˜100 ms) activation) was about 45 nM; on guanylyl cyclase (GC) (slow (˜1 to 10 sec) activation), about 20 nM. In addition, the “change in mean arterial pressure” value in [9] was “no change in mean arterial pressure”. Moreover, in data set [2] (intravenous), the “maximally effective dose, local brachial artery vasodilatation” value is 6 µM.

`O=[N+]([O-])OCC(CO[N+](=O)[O-])O[N+](=O)[O-]` [nitroglycerin]: the “prevention of bone loss” value in data set [10] is “as effective as estrogen to prevent bone loss”.

For the molecule S-nitroso-N-acetylpenicilamine [SNAP], the latency to seizure entry in data set [7] is “significantly shortens”.

As for linear alkylbenzene sulfonates [LAS], the “toxicity to AAOB” value with AAOB was “toxic to AAOB at ppm levels”; in the data set on AAOB (listed as linear alkyl benzene sulfonate detergents) it was “killed by ppm levels”.

B1: CP: ceruloplasmin, the main Cu containing serum protein (protein, UniProt P00450 20-1065, looked up)
Ceruloplasmin: KEKHYYIGIIETTWDYASDHGEKKLISVDTEHSNIYLQNGPDRIGRLYKKALYLQYTDETFRTTIEKPVWLGFLGPIIKAETGDKVYVHLKNLASRPYTFHSHGITYYKEHEGAIYPDNTTDFQRADDKVYPGEQYTYMLLATEEQSPGEGDGNCVTRIYHSHIDAPKDIASGLIGPLIICKKDSLDKEKEKHIDREFVVMFSVVDENFSWYLEDNIKTYCSEPEKVDKDNEDFQESNRMYSVNGYTFGSLPGLSMCAEDRVKWYLFGMGNEVDVHAAFFHGQALTNKNYRIDTINLFPATLFDAYMVAQNPGEWMLSCQNLNHLKAGLQAFFQVQECNKSSSKDNIRGKHVRHYYIAAEEIIWNYAPSGIDIFTKENLTAPGSDSAVFFEQGTTRIGGSYKKLVYREYTDASFTNRKERGPEEEHLGILGPVIWAEVGDTIRVTFHNKGAYPLSIEPIGVRFNKNNEGTYYSPNYNPQSRSVPPSASHVAPTETFTYEWTVPKEVGPTNADPVCLAKMYYSAVEPTKDIFTGLIGPMKICKKGSLHANGRQKDVDKEFYLFPTVFDENESLLLEDNIRMFTTAPDQVDKEDEDFQESNKMHSMNGFMYGNQPGLTMCKGDSVVWYLFSAGNEADVHGIYFSGNTYLWRGERRDTANLFPQTSLTLHMWPDTEGTFNVECLTTDHYTGGMKQKYTVNQCRRQSEDSTFYLGERTYYIAAVEVEWDYSPQREWEKELHHLQEQNVSNAFLDKGEFYIGSKYKKVVYRQYTDSTFRVPVERKAEEEHLGILGPQLHADVGDKVKIIFKNMATRPYSIHAHGVQTESSTVTPTLPGETLTYVWKIPERSGAGTEDSACIPWAYYSTVDQVKDLYSGLIGPLIVCRRPYLKVFNPRRKLEFALLFLVFDENESWYLDDNIKTYSDHPEKVNKDDEEFIESNKMHAINGRMFGNLQGLTMHVGDEVNWYLMGMGNEIDLHTVHFHGHSFQYKHRGVYSSDVFDIFPGTYQTLEMFPRTPGIWLLHCHVTDHIHAGMETTYTVLQNEDTKSG
B1: the “increase in formation of GSNO from NO and GSH” value in [11] is on record as “approximately 100 times”. Also, the “conversion of authentic NO to RSNO (recovered NAC—NO)” value in data set [12] is listed as at most 33%.
